Results: patent US8507506B2, “Theophylline derivative inhibits osteoporosis” (Kaohsiung Medical University, priority 2011, dated 2013)
Marks after values point to notes of the source that are not given here.

Experiments:
[1] = test system: c-Fos protein in RAW264.7 cells; test: Western blot, expression of c-Fos induced by RANKL; assay type: cell-based; settings: 7.5 μM and 10 μM, RANKL 24 hours, FIG. 12
Procedure: The proteins were collected by scraping and were centrifuged (13,000 rpm, 4° C., 30 minutes). The supernatant was stored in an eppendorf in −80° C. • c) Concentrations of the proteins were examined by Bio-Red DC Protein Assay. After knowing the concentrations, the proteins were diluted to specific concentrations by adding ddH2O. One forth volume of the diluted proteins of sample buffer was added into the diluted proteins and was put in boiled water for 5 min and then was chilled on ice for 5 minutes. After short time centrifugation, the diluted proteins could be injected into wells of a gel. The gel was run at 100 V for 10 minutes until the proteins were driven to the intersection between a loading gel and a running gel. Then, the voltage was swopped to 200 V for 40 minutes. • d) A PVDF membrane was immersed in Methanol for 2 minutes. After two washes in ddH2O, the membrane was immersed in transfer buffer for 15 minutes. A SDS-PAGE was put on the membrane, and wet paper was flanked them. The proteins were transferred to the PVDF membrane using a semi-dry transfer at 20 V for 30 minutes. • e) The band of the PVDF membrane was trimmed and was added by suitable amount of blocking buffer (5% skim milk in washing buffer) and then was shaken for 1 hour in room temperature to block non specific bindings. Then, the band was covered by a diluted 1° antibody overnight in 4° C. […]

[2] = test system: IL-6 secretion by RAW264.7 cells; test: ELISA, RANKL-induced secretion of IL-6; assay type: cell-based; settings: RAW264.7, ELISA, FIG. 7(A)
Procedure: (§1) Under RANKL stimulation, mononuclear RAW264.7 cells can secrete pro-inflammatory cytokines such as TNF-α, IL-1, IL-6, etc. ELISA is used to measure that KMUP-1 influences RANKL to induce the secretion of pro-inflammatory cytokines. […] 10^5 cells were plated per well in 24-well plates. […] After 24 hours reaction, the reaction fluid was centrifuged (13,000 rpm, 4° C., 20 minutes), and then the supernatant was tasted by ELISA kit (R&D system and eBioscience™) to detect the amount of TNF-α, IL-1β, IL-6, and IL-10. The experimental process is followed with the instructions of the kit.

[3] = test system: JNK phosphorylation in RAW264.7 cells; test: Western blot, phosphorylation of JNK induced by RANKL; assay type: cell-based; settings: 7.5 μM and 10 μM, RANKL 15 minutes, FIG. 10
Procedure: (§2) MAP kinases including ERK, JNK and p38 are stimulated by RANKL to be phosphorylized and further influence the down-stream key transcription factors which induce the differentiation of osteoclast-like cells such as c-Fos, NFATc1, etc. Before estimating the drug effect, 10 ng/ml RANKL are used to induce the phosphorylation of ERK, JNK and p38 at different time points. […] It is shown that KMUP-1 can reduce the activation of MAP kinases induced by RANKL. […] The proteins were collected by scraping and were centrifuged (13,000 rpm, 4° C., 30 minutes). The supernatant was stored in an eppendorf in −80° C. • c) Concentrations of the proteins were examined by Bio-Red DC Protein Assay. After knowing the concentrations, the proteins were diluted to specific concentrations by adding ddH2O. One forth volume of the diluted proteins of sample buffer was added into the diluted proteins and was put in boiled water for 5 min and then was chilled on ice for 5 minutes. After short time centrifugation, the diluted proteins could be injected into wells of a gel. The gel was run at 100 V for 10 minutes until the proteins were driven to the intersection between a loading gel and a running gel. Then, the voltage was swopped to 200 V for 40 minutes. • d) A PVDF membrane was immersed in Methanol for 2 minutes. After two washes in ddH2O, the membrane was immersed in transfer buffer for 15 minutes. […]

[4] = test system: Fra-1 mRNA in RAW264.7 cells; test: RT-PCR, RANKL-induced mRNA expression of Fra-1; assay type: cell-based; settings: for RANKL-induced mRNA expression level of Fra-1: RAW264.7 cells, 24 hours, CTL 100%, mean ± SEM
Excerpt: (§3) The culture medium was discarded. […] [table] f) Running • A.

[5] = test system: TRAF6 mRNA in RAW264.7 cells; test: RT-PCR, RANKL-induced mRNA expression of TRAF6; assay type: cell-based; settings: for RANKL-induced mRNA expression level of TRAF6: RAW264.7 cells, 24 hours, CTL 100%, mean ± SEM
Excerpt: as §3

[6] = test system: MIA-induced knee arthritis in Wistar male rats; test: Monosodium iodoacetate (MIA) induced knee arthritis rat model; assay type: in vivo
[7] = test system: RAW264.7 cells; test: BrdU assay, proliferation induced by RANKL; assay type: cell-based; settings: RAW264.7, 5 μM, 7.5 μM, 10 μM, FIG. 2
Procedure: The BrdU assay was followed the instructions of Cell Proliferation ELISA BrdU kit. 10^3 cells were plated per well in 96-well plates. […] After washing in wash buffer for three times, 100 μl/well Substrate reaction was added and incubated for 30 minutes at room temperature.

[8] = test system: MMP-9 mRNA in RAW264.7 cells; test: RT-PCR, RANKL-induced mRNA expression of MMP-9; assay type: cell-based; settings: for RANKL-induced mRNA expression level of MMP-9: RAW264.7 cells, 24 hours, CTL 100%, mean ± SEM
Excerpt: as §3

[9] = test system: p38 phosphorylation in RAW264.7 cells; test: Western blot, phosphorylation of p38 induced by RANKL; assay type: cell-based; settings: 7.5 μM and 10 μM, RANKL 15 minutes, FIG. 11
Procedure: as §2

[10] = test system: TNF-α secretion by RAW264.7 cells; test: ELISA, RANKL-induced secretion of TNF-α; assay type: cell-based; settings: RAW264.7, ELISA, FIG. 6
Procedure: as §1

[11] = 10 ng/ml RANKL, summary of Table 1

## Cn1c(=O)c2c(ncn2CCN2CCN(c3ccccc3Cl)CC2)n(C)c1=O [KMUP-1, 7-[2-[4-(2-Chlorophenyl)piperazin-1-yl]ethyl] theophylline]
[1]
  expression of c-Fos induced by RANKL: can efficiently inhibit it
[2]
  RANKL-induced secretion of IL-6: presents a dose dependent inhibition phenomenon
[3]
  phosphorylation of JNK induced by RANKL: can efficiently inhibit the phosphorylation of ERK, JNK and p38 induced by RANKL
[4]; [11]
  effect on mRNA expression of Fra-1 induced by RANKL (in words): inhibits the mRNA expression
[4]; RANKL 10 ng/ml + KMUP-1 1 μM
  RANKL-induced mRNA expression level of Fra-1: 244.1 ± 38.9% ^b
[4]; RANKL 10 ng/ml + KMUP-1 2.5 μM
  RANKL-induced mRNA expression level of Fra-1: 285.1 ± 44.8% ^b
[4]; RANKL 10 ng/ml + KMUP-1 5 μM
  RANKL-induced mRNA expression level of Fra-1: 310.1 ± 56.3% ^b
[4]; RANKL 10 ng/ml + KMUP-1 7.5 μM
  RANKL-induced mRNA expression level of Fra-1: 238.7 ± 49.9% ^b
[4]; RANKL 10 ng/ml + KMUP-1 10 μM
  RANKL-induced mRNA expression level of Fra-1: 265.2 ± 64.1% ^b
[5]; [11]
  effect on mRNA expression of TRAF6 induced by RANKL (in words): not obviously inhibits
[5]; RANKL 10 ng/ml + KMUP-1 1 μM
  RANKL-induced mRNA expression level of TRAF6: 100.2 ± 4.7%
[5]; RANKL 10 ng/ml + KMUP-1 2.5 μM
  RANKL-induced mRNA expression level of TRAF6: 123.8 ± 2.3%
[5]; RANKL 10 ng/ml + KMUP-1 5 μM
  RANKL-induced mRNA expression level of TRAF6: 125.9 ± 2.9% ^
[5]; RANKL 10 ng/ml + KMUP-1 7.5 μM
  RANKL-induced mRNA expression level of TRAF6: 128.4 ± 6.5% ^
[5]; RANKL 10 ng/ml + KMUP-1 10 μM
  RANKL-induced mRNA expression level of TRAF6: 127.2 ± 1.3% ^
[6]; oral 1 mg/kg
  holes and defects of cartilage tissues (H&E slices): the holes and defects from the damages of the MIA still exist
  inflammatory cell infiltrations (H&E slices): there are still many inflammatory cell infiltrations
[6]; oral 2.5 mg/kg
  holes and defects of cartilage tissues (H&E slices): become much better
  inflammatory cell infiltrations (H&E slices): the inflammatory cell infiltrations become less
[6]; oral 2.5 mg/kg and 5 mg/kg, one week before and one week after MIA
  damages of articular cartilage caused by MIA (gross appearance): can reduce the damages caused by the MIA
[6]; oral 5 mg/kg
  holes and defects of cartilage tissues (H&E slices): close to the recovery condition of the sham group
  inflammatory cell infiltrations (H&E slices): there are still some inflammatory cell infiltrations
[6]; oral 1, 2.5, 5 mg/kg
  mast cell infiltrations (toluidine blue slices): the mast cell infiltrations present a trend of reducing according to the higher dose
[7]
  cell proliferation induced by RANKL (BrdU assay): can inhibit the cell proliferation induced by RANKL
[8]; [11]
  effect on mRNA expression of MMP-9 induced by RANKL (in words): inhibits the mRNA expression
[8]; RANKL 10 ng/ml + KMUP-1 1 μM
  RANKL-induced mRNA expression level of MMP-9: 1732.4 ± 168.9%
[8]; RANKL 10 ng/ml + KMUP-1 2.5 μM
  RANKL-induced mRNA expression level of MMP-9: 1619.9 ± 179.8%
[8]; RANKL 10 ng/ml + KMUP-1 5 μM
  RANKL-induced mRNA expression level of MMP-9: 1570.9 ± 159.3% ^b
[8]; RANKL 10 ng/ml + KMUP-1 7.5 μM
  RANKL-induced mRNA expression level of MMP-9: 1439.8 ± 188.8% ^b
[8]; RANKL 10 ng/ml + KMUP-1 10 μM
  RANKL-induced mRNA expression level of MMP-9: 1372.0 ± 175.6% ^b
[9]
  phosphorylation of p38 induced by RANKL: can efficiently inhibit the phosphorylation of ERK, JNK and p38 induced by RANKL
[10]
  RANKL-induced secretion of TNF-α: presents a dose dependent inhibition phenomenon
